Assay results: patent publication US8226943B2, “Antibodies to notch receptors” (OncoMed Pharmaceuticals, Inc., priority 2008, dated 2012)

Tests used:
[1] = tested on: PE13 breast tumors; assay: Microarray analysis of PE13 breast tumors treated with taxol or 59R1 plus taxol; type: in vivo, mice; settings: PE13, Taxol vs. control
Description: In addition to investigating the effects of 59R1 in tumors and the effect on CSC frequency, gene changes were studied following 59R1 treatment in combination with taxol. The experiment was performed in PE13 breast tumors where a decrease in CSC frequency after treatment with 59R1 alone or 59R1 plus taxol treatment had previously been observed (and described herein). Microarray analysis was performed on tumors from the same experiment where limiting dilution analyses of PE13 were carried out for CSC quantification (FIG. 19). Animals bearing PE13 breast tumors were treated three weeks with 59R1 plus taxol, control and taxol prior to harvesting for microarray analysis. Mean differential expression values for taxol vs. control and 59R1 plus taxol vs. taxol treated animals (3 animals per group) were calculated.

[2] = tested on: B51 breast tumors; assay: Limiting dilution assay of cancer stem cell frequency, B51 breast tumors; type: in vivo, NOD-SCID mice; settings: B51, paclitaxel
From the text: Limiting dilution assays (LDAs) can be used to assess the effect of a Notch-binding agent on solid tumor cancer stem cells and on the tumorigenicity of a tumor comprising the cancer stem cells. The assays can be sued to determine the frequency of cancer stem cells in tumors from animals treated with the Notch-binding agent or other agent and to compare that frequency to the frequency of cancer stem cells in tumors from control animals.
An LDA was used to assess the effect on the tumorigenicity of the B51 breast tumors that were treated with the combination of control antibody (1B711) plus paclitaxel (Taxol) or treated with the combination of 59R1 and paclitaxel, as described above in Example 7. In addition, the effect of treatment of B51 breast tumors with the control antibody alone or 59R1 alone was also determined by LDA. The doses of antibodies and paclitaxel and the schedule of dosing for the control antibody group and the 59R1 group were the same as described in Example 7, above for the other two treatment groups. After three doses of antibodies and/or paclitaxel, tumors were harvested, processed and dissociated into single cells. The human tumor cells were isolated from the xenograft tumor cells by incubation with biotinylated mouse antibodies (α-mouse CD45-biotin1:200 dilution and rat α-mouse H2 Kd-biotin1:100 dilution, BioLegend, San Diego, Calif.) on ice for 30 min, followed by addition of streptavidin-labeled magnetic beads and removal of the mouse cells with the aid of a magnet. The human cells in the suspension were harvested and counted.
A serial titration of cells (30, 90, 270, and 810 cells) from each of the four treatment groups was injected in a 1:1 (v/v) mixture of FACS buffer and Matrigel into a new set of NOD-SCID mice (n=10/group). Tumors were allowed to grow for 72 days. The percentage of mice with detectable tumors was determined in all groups. The cancer stem cell frequency was then calculated using L-Calc™ software (StemCell Technologies Inc.; downloadable from www.stemcell.com/search/default.asp).

## CC(=O)O[C@H]1C(=O)[C@@]2(C)[C@H]([C@H](OC(=O)c3ccccc3)[C@]3(O)C[C@H](OC(=O)[C@H](O)[C@@H](NC(=O)c4ccccc4)c4ccccc4)C(C)=C1C3(C)C)[C@]1(OC(C)=O)CO[C@@H]1C[C@@H]2O [Taxol, paclitaxel, reference compound]
[1]
  Fold BMPR1B: 10.2
  Fold BNIP3: −2.1
  Fold EGLN3: −21.1
  Fold HSPB6: 13.4
  Fold ITGAM: 2.2
  Fold LHX8: 4.6
  Fold NDRG1: −9.0
  Fold RARRES1: 6.4
  Fold RARRES3: 2.6
  Fold RBP2: 4.8
  Fold XAF1: 10.6
[2]
  increase of frequency of cancer stem cells relative to the control: more than two-fold
